Measured values published in patent publication EP1107982B1, “[…] COMPLEXES OF 1,2-(CIS)-DIOL CYCLIC PEPTIDES” (Eli Lilly & Company, priority 1998, dated 2000).
*1 amine or outer side, *2 acyl side, *3 side chain or, on linkers, in order; H or OH if unused. Where a SMILES comes first, the peptide text is derived from it. Bridges are numbered along the chain shown (N, C = ends). [ ]: non-standard residue; d: D form. The star is where a group is joined. pTerphenylCO(4''-OnC5H11) = CCCCCOc1ccc(-c2ccc(-c3ccc(C(=O)*)cc3)cc2)cc1; Orn(4R-OH,5R-OH) = O=C([C@H](C[C@@H](O)[C@@H](O)N[*:3])N[*:1])[*:2]; hTyr(3S-OH,4S-OH) = N[C@H](C(=O)O)[C@H](O)[C@@H](O)c1ccc(O)cc1; Pro(3S-OH,4S-Me) = C[C@H]1CN[C@H](C(=O)O)[C@H]1O; Hyp = O=C(O)[C@@H]1C[C@@H](O)CN1

Assays:
[1] = Solubility of Compound C1 in the presence of m-APBA (suspension, centrifugation, HPLC of supernatant); assay type: physicochemical; settings: for appearance of aqueous solution: 30 mg/ml
Description: (§1) Unless indicated otherwise, all chemicals can be acquired from commercial sources (i.e., Aldrich Chemical, Sigma, etc.) in reagent grade or better. Centrifugation was performed using an IEC benchtop clinical centrifuge equipped with six-place swinging-bucket rotor (for samples > 1.5 ml) and an Eppendorf tabletop centri fuge model 5415C equipped with standard 18-place rotor (for samples ≤ 1.5 ml). HPLC analyses were performed using a Hewlett Packard Liquid Chromatograph Model 1090 equipped with a 0.46 x 25 cm Zorbax™ SB-C8 column. All injections were 10 µl, followed by gradient elution from 40-100% acetonitrile (AcN) over 25 minutes and UV detection at 280 nm. Unless otherwise stated, samples were diluted in 0.25 N acetic acid/AcN prior to injection to facilitate decomplexation and ensure solubility in the HPLC solvent system. All alkaline pH adjustments were made by addition of a 1:1 mixture of ammonium hydroxide and 50% sodium hydroxide. Measurements were taken with a Beckman φ40 pH meter calibrated with pH 7 and pH 10 standards.
Crude C1 was suspended at 50 mg/ml (65% potency: 32.5 mg/ml, or 28.5 mM) in 4 ml of either 100 mM m-APBA or 100 mM ammonium bicarbonate (control) at pH 5.0 and pH 9.0. The samples were stirred at room temperature for 2 hours, at which time aliquots were removed and assayed both before and after centrifugation for five minutes at […]. All samples were diluted 50-fold prior to HPLC analysis.
At low pH (≤ 8.0), solid suspensions of Compound C1 in m-APBA and in ammonium bicarbonate were visually identical. Both were opaque and contained varying amounts of solid, insoluble material. However, when the pH was adjusted to 9.0 dramatic differences in appearance between the two samples was observed within approximately 30 minutes. The aqueous ammonium bicarbonate control was beige in color and completely opaque; whereas, the sample containing m-APBA turned a transparent, dark brown. When the mixtures were subjected to centrifugation for 5 minutes at 16,000 x g and the resulting supernatants quantified by HPLC analysis, the concentration of C1 present in the m-APBA supernatant was 23.76 mg/ml (94% of that in the original suspension) and only 2.27 mg/ml (10% of the original suspension) was present in the ammonium bicarbonate control supernatant.

[2] = Stability of Compound C1 in m-APBA at alkaline pH (HPLC main peak purity); assay type: physicochemical
Description: as §1
Compound C1 was suspended at 100 mg/ml (65% potency: 65 mg/ml (57 mM) in either 250 mM m-APBA or water (control). Separate samples were adjusted to pH 8.0, 8.5, 9.0, 9.5 and 10.0. Aliquots for time-point analysis were removed and diluted 100-fold in 100 mM acetic acid/methanol prior to HPLC injection. Stability was assessed by analysis of main peak purity, since degradation products are known to elute within the HPLC chromatographic window.

[3] = m-APBA replaced with boric acid (borate complex)

CCCCCOc1ccc(-c2ccc(-c3ccc(C(=O)N[C@H]4C[C@@H](O)[C@@H](O)NC(=O)[C@@H]5[C@@H](O)[C@@H](C)CN5C(=O)[C@H]([C@@H](C)O)NC(=O)[C@H]([C@H](O)[C@@H](O)c5ccc(O)cc5)NC(=O)[C@@H]5C[C@@H](O)CN5C(=O)[C@H]([C@@H](C)O)NC4=O)cc3)cc2)cc1 [Compound C1] ({pTerphenylCO(4''-OnC5H11)}-[Orn(4R-OH,5R-OH)]T[Hyp][hTyr(3S-OH,4S-OH)]T[Pro(3S-OH,4S-Me)]; lactam 1-C)
concentration in supernatant as % of the original suspension ([1]; 100 mM ammonium bicarbonate control, pH 9.0): 10% | solubility thermodynamic at 2 h ([1]; 100 mM ammonium bicarbonate control, pH 9.0, room temperature, crude C1 suspended at 50 mg/ml (32.5 mg/ml), after centrifugation, read-out: concentration of C1 present in the supernatant): 2270 µg/mL | concentration in supernatant as % of that in the original suspension ([1]; 100 mM m-APBA, pH 9.0): 94% | concentration of C1 present in the supernatant ([1]; 100 mM m-APBA, pH 9.0, room temperature, crude C1 suspended at 50 mg/ml (32.5 mg/ml), after centrifugation): 23760 µg/mL | appearance of aqueous solution ([1]; boronate complex): transparent solution | increase in solubility ([1]; in the presence of m-aminophenyl boronic acid at pH 9.0 in aqueous solution): 10 fold | solubility of complex [1, 3]: increased solubility | solubility of complex ([1]; m-APBA replaced with p-carboxyphenyl boronic acid (boronate complex)): increased solubility | appearance of aqueous solution ([1]; non-complexed): opaque slurry | purity (main peak) ([2]; 250 mM m-APBA, pH 9.5, after 17 hours): > 70% | purity (main peak, of the total peak area) ([2]; aqueous control (water), pH 9.5, after 9 hours): less than 70% | chemical stability in comparison to the aqueous control ([2]; in the presence of m-APBA, alkaline pH): enhanced chemical stability | stability of complex [2, 3]: very stable | stability of complex ([2]; p-carboxyphenylboronic acid used instead of m-APBA): did not appear to be as stable
